Assay results reported in patent US11549147B2, “Treatment of atopic dermatitis with tradipitant” (VANDA PHARMACEUTICALS INC., priority 2017, dated 2023).

Tests used:
[1] = Plasma concentration levels of tradipitant in healthy subjects (Example 2); format: in vivo, human
Description: A study is conducted in which healthy subject participants are orally administered 85 mg tradipitant on study day 3, and then 85 mg tradipitant Q12H on study days 4-16. Plasma concentration levels of tradipitant are measured on each of day 3, day 7, and day 11.
This study illustrates that administration of 85 mg tradipitant qd (on day 3) produces an average plasma concentration over hours 0-12 that is about 50% of the plasma concentration observed in the PM group in Example 1. On days 7 and 11, the average plasma concentration over hours 0-12 following administration of 85 mg bid (specifically, Q12H) tradipitant is about 150% of the plasma concentration observed in the PM group in Example 1. The average plasma concentration over hours 0-12 at each point is determined by dividing the AUC for hours 0-12 (in (hr.)×(ng/mL)) by 12 hours.

[2] = tested on: responders and non-responders to tradipitant treatment of atopic dermatitis; test: Association analysis of genetic markers with VAS response to tradipitant treatment (Example 6, Tables 10-11); format: in vivo, human
Description: A further study is performed to identify additional genetic markers that correlate directly with a positive response to tradipitant treatment. To identify the genetic markers, an association analysis is conducted using a logistic additive model. Visual Analog Scale (VAS) is used as the response outcome metric. The identified variants are shown below in Table 10.
Using the top significant SNPs chosen by p-value cutoff, individuals are classified on responder status to tradipitant treatment, with AUC of 0.95 (10 fold cross validation). Loss of function (LOF) and protein coding variants are investigated in terms of VAS outcomes on the cohort of cases.

## O=C(c1ccccc1Cl)c1cccnc1-c1nnn(Cc2cc(C(F)(F)F)cc(C(F)(F)F)c2)c1-c1ccncc1 [Tradipitant]
[1]; 85 mg bid (Q12H), days 7 and 11
  average plasma concentration over hours 0-12 relative to the PM group in Example 1: about 150%
[1]; 85 mg qd, day 3
  average plasma concentration over hours 0-12 relative to the PM group in Example 1: about 50%
[2]; CTNNA3 rs57930837 AA genotype
  response to tradipitant treatment of atopic dermatitis by genotype: a majority of rs57930837 AA individuals do not respond to treatment
[2]; CTNNA3 rs57930837 CA genotype
  response to tradipitant treatment of atopic dermatitis by genotype: a majority of individuals having a CA rs57930837 genotype respond to treatment
[2]; CTNNA3 rs57930837 CC genotype
  response to tradipitant treatment of atopic dermatitis by genotype: all individuals having a CC rs57930837 genotype respond to treatment
